These results are taken from patent publication US20220016144A1, “STABLE AQUEOUS COMPOSITION COMPRISING OLIGOSACCHARIDES” (SOCIETE DES PRODUITS NESTLE S.A., priority 2018, published 2022).

The nature of the data set: Example 2: HPLC analysis of oligosaccharides, fructose isomers and lactose at pH 6 and 7 over aseptic filling and room temperature storage. Type of data set: physicochemical. As to the method: Oligosaccharides 2′Fucosyllactose (2′FL) and Lacto-N-neotetraose (LNnT) were mixed in a 10:1 ratio (w/w) and dissolved in water to a final concentration of 10% (w/v). Out of this solution, […] samples were generated respectively having pH 6 and 7 (by addition of KOH) Such samples were subjected to heat treatment (UHT) followed by aseptic filling of small monodose bottles. Solutions at different pHs were analysed before and after filling of bottles as well as after different times of storage at room temperature (21-26° C.). Analysis was done by HPLC using a TSK gel Amide-80 (150 mm×4.6 mm, particle size: 3 μm) column and detection via a charged aerosol detector. F or 2′FL (FIG. 2a), LNnT (FIG. 2d), the fructose isomers of the added 2′FL (indicated as FL lactulose in the graphs, FIG. 2d) and of added LNnT (indicated as LNnT isomer in the graphs, FIG. 2e) as well as for their degradation products (lactose, FIG. 2c). The pH of the solution was also measured. All data are expressed as % of added oligosaccharides.

For `CC(=O)N[C@H]1[C@H](O[C@H]2[C@@H](O)[C@@H](CO)O[C@@H](O[C@H]3[C@H](O)[C@@H](O)C(O)O[C@@H]3CO)[C@@H]2O)O[C@H](CO)[C@@H](O[C@@H]2O[C@H](CO)[C@H](O)[C@H](O)[C@H]2O)[C@@H]1O` (mixture of isomers) [LNnT, lacto-N-neotetraose], the LNnT isomers formation entry (pH 6, compared with pH 7) is recorded as “much lower”. Further, the “oligosaccharide amounts at aseptic filling and over time” value (pH 6, UHT, aseptic filling, storage at 21-26° C., 2′FL:LNnT 10:1, 10% w/v) is “much more stable”.
